Legend:
Assay in all cases: fitness (endpoint OD595 vs no drug) (fraction); higher = more growth
[1] = system: S. aureus Newman
Procedure, shortened: (§1)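 Fitness is computed from the optical density at which cultures reach stationary phase, divided by the robust mean of no-drug control wells. Any value above 1 is set to 1. Cultures started at OD595 0.01 in 384-well plates with TSB, LB Lennox or CY at 37 °C, and OD595 was read every 30 min for 14 h against a first-reading background.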

[2] = system: S. pneumoniae D39V
Procedure, shortened: as §1

[3] = system: S. aureus DSM 20231
Procedure, shortened: as §1
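Note: OD595 on entry to stationary phase over no-drug wells; at most 1.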

CO[C@@]12[C@H](COC(N)=O)C3=C(C(=O)C(C)=C(N)C3=O)N1C[C@@H]1N[C@@H]12 [Mitomycin C] + CN[C@H](CC(C)C)C(=O)N[C@H]1C(=O)N[C@@H](CC(N)=O)C(=O)N[C@H]2C(=O)N[C@H]3C(=O)N[C@H](C(=O)N[C@H](C(=O)O)c4cc(O)cc(O)c4-c4cc3ccc4O)[C@H](O)c3ccc(c(Cl)c3)Oc3cc2cc(c3O[C@@H]2O[C@H](CO)[C@@H](O)[C@H](O)[C@H]2O[C@H]2C[C@](C)(N)[C@H](O)[C@H](C)O2)Oc2ccc(cc2Cl)[C@H]1O [Vancomycin]
Conditions | fitness
[1], first compound 0.0156 µg/mL, partner 0.1875 µg/mL | 0.747
[1], first compound 0.0156 µg/mL, partner 0.375 µg/mL | 0.708
[1], first compound 0.0156 µg/mL, partner 0.75 µg/mL | 0.733
[1], first compound 0.0312 µg/mL, partner 0.1875 µg/mL | 0.719
[1], first compound 0.0312 µg/mL, partner 0.375 µg/mL | 0.684
[1], first compound 0.0312 µg/mL, partner 0.75 µg/mL | 0.65
[1], first compound 0.0625 µg/mL, partner 0.1875 µg/mL | 0.56
[1], first compound 0.0625 µg/mL, partner 0.375 µg/mL | 0.415
[1], first compound 0.0625 µg/mL, partner 0.75 µg/mL | 0.411
[2], first compound 0.001075 µg/mL, partner 0.125 µg/mL | 0.928
[2], first compound 0.001075 µg/mL, partner 0.25 µg/mL | 0.629
[2], first compound 0.001075 µg/mL, partner 0.5 µg/mL | 0.208
[2], first compound 0.002 µg/mL, partner 0.03125 µg/mL | 0.951
[2], first compound 0.002 µg/mL, partner 0.0625 µg/mL | 0.877
[2], first compound 0.002 µg/mL, partner 0.125 µg/mL | 0.745
[2], first compound 0.00215 µg/mL, partner 0.125 µg/mL | 0.869
[2], first compound 0.00215 µg/mL, partner 0.25 µg/mL | 0.68
[2], first compound 0.00215 µg/mL, partner 0.5 µg/mL | 0.202
[2], first compound 0.004 µg/mL, partner 0.03125 µg/mL | 0.846
[2], first compound 0.004 µg/mL, partner 0.0625 µg/mL | 0.836
[2], first compound 0.004 µg/mL, partner 0.125 µg/mL | 0.667
[2], first compound 0.0043 µg/mL, partner 0.125 µg/mL | 0.863
[2], first compound 0.0043 µg/mL, partner 0.25 µg/mL | 0.592
[2], first compound 0.0043 µg/mL, partner 0.5 µg/mL | 0.206
[2], first compound 0.008 µg/mL, partner 0.03125 µg/mL | 0.727
[2], first compound 0.008 µg/mL, partner 0.0625 µg/mL | 0.732
[2], first compound 0.008 µg/mL, partner 0.125 µg/mL | 0.629
[3], first compound 0.0156 µg/mL, partner 0.1875 µg/mL | 0.741
[3], first compound 0.0156 µg/mL, partner 0.375 µg/mL | 0.719
[3], first compound 0.0156 µg/mL, partner 0.75 µg/mL | 0.708
[3], first compound 0.0312 µg/mL, partner 0.1875 µg/mL | 0.705
[3], first compound 0.0312 µg/mL, partner 0.375 µg/mL | 0.762
[3], first compound 0.0312 µg/mL, partner 0.75 µg/mL | 0.751
[3], first compound 0.0625 µg/mL, partner 0.1875 µg/mL | 0.592
[3], first compound 0.0625 µg/mL, partner 0.375 µg/mL | 0.624
[3], first compound 0.0625 µg/mL, partner 0.75 µg/mL | 0.624

CO[C@@]12[C@H](COC(N)=O)C3=C(C(=O)C(C)=C(N)C3=O)N1C[C@@H]1N[C@@H]12 [Mitomycin C] + COc1c(N2C[C@@H]3CCCN[C@@H]3C2)c(F)cc2c(=O)c(C(=O)O)cn(C3CC3)c12 [Moxifloxacin]
Conditions | fitness
[1], first compound 0.0156 µg/mL, partner 0.0075 µg/mL | 0.63
[1], first compound 0.0312 µg/mL, partner 0.0075 µg/mL | 0.59
[1], first compound 0.0312 µg/mL, partner 0.03 µg/mL | 0.0632
[1], first compound 0.0625 µg/mL, partner 0.0075 µg/mL | 0.32
[1], first compound 0.0625 µg/mL, partner 0.03 µg/mL | 0.0334
[2], first compound 0.001075 µg/mL, partner 0.0037 µg/mL | 0.878
[2], first compound 0.001075 µg/mL, partner 0.0075 µg/mL | 0.902
[2], first compound 0.001075 µg/mL, partner 0.015 µg/mL | 0.869
[2], first compound 0.002 µg/mL, partner 0.005 µg/mL | 0.895
[2], first compound 0.002 µg/mL, partner 0.01 µg/mL | 0.902
[2], first compound 0.002 µg/mL, partner 0.02 µg/mL | 0.769
[2], first compound 0.00215 µg/mL, partner 0.0037 µg/mL | 0.846
[2], first compound 0.00215 µg/mL, partner 0.0075 µg/mL | 0.805
[2], first compound 0.00215 µg/mL, partner 0.015 µg/mL | 0.813
[2], first compound 0.004 µg/mL, partner 0.005 µg/mL | 0.838
[2], first compound 0.004 µg/mL, partner 0.01 µg/mL | 0.807
[2], first compound 0.004 µg/mL, partner 0.02 µg/mL | 0.727
[2], first compound 0.0043 µg/mL, partner 0.0037 µg/mL | 0.665
[2], first compound 0.0043 µg/mL, partner 0.0075 µg/mL | 0.691
[2], first compound 0.0043 µg/mL, partner 0.015 µg/mL | 0.666
[2], first compound 0.008 µg/mL, partner 0.005 µg/mL | 0.673
[2], first compound 0.008 µg/mL, partner 0.01 µg/mL | 0.72
[2], first compound 0.008 µg/mL, partner 0.02 µg/mL | 0.637
[3], first compound 0.0156 µg/mL, partner 0.0075 µg/mL | 0.677
[3], first compound 0.0156 µg/mL, partner 0.015 µg/mL | 0.675
[3], first compound 0.0156 µg/mL, partner 0.03 µg/mL | 0.543
[3], first compound 0.0312 µg/mL, partner 0.0075 µg/mL | 0.703
[3], first compound 0.0312 µg/mL, partner 0.015 µg/mL | 0.624
[3], first compound 0.0312 µg/mL, partner 0.03 µg/mL | 0.506
[3], first compound 0.0625 µg/mL, partner 0.0075 µg/mL | 0.557
[3], first compound 0.0625 µg/mL, partner 0.015 µg/mL | 0.504
[3], first compound 0.0625 µg/mL, partner 0.03 µg/mL | 0.371

fitness, [3], one replicate
Conditions | first compound 0.0156 µg/mL | first compound 0.0312 µg/mL | first compound 0.0625 µg/mL
partner 0.06 µg/mL | 0.674 | 0.603 | 0.512
partner 0.12 µg/mL | 0.413 | 0.302 | 0.198

CO[C@@]12[C@H](COC(N)=O)C3=C(C(=O)C(C)=C(N)C3=O)N1C[C@@H]1N[C@@H]12 [Mitomycin C] + COc1ccc(C[C@H](N)C(=O)N[C@H]2[C@@H](O)[C@H](n3cnc4c(N(C)C)ncnc43)O[C@@H]2CO)cc1 [Puromycin]
fitness
Conditions | first compound 0.001075 µg/mL | first compound 0.00215 µg/mL | first compound 0.0043 µg/mL | first compound 0.0156 µg/mL | first compound 0.0312 µg/mL | first compound 0.0625 µg/mL
[1], partner 0.39 µg/mL | – | – | – | 0.79 | 0.651 | 0.552
[1], partner 0.78 µg/mL | – | – | – | 0.766 | 0.704 | 0.604
[1], partner 1.56 µg/mL | – | – | – | 0.764 | 0.662 | 0.494
[2], partner 1 µg/mL | 0.986 | 0.968 | 0.867 | – | – | –
[2], partner 2 µg/mL | 0.935 | 0.915 | 0.781 | – | – | –
[2], partner 4 µg/mL | 0.798 | 0.775 | 0.654 | – | – | –
[3], partner 0.39 µg/mL | – | – | – | 0.759 | 0.758 | 0.593
[3], partner 0.78 µg/mL | – | – | – | 0.776 | 0.78 | 0.638
[3], partner 1.56 µg/mL | – | – | – | 0.752 | 0.699 | 0.582

fitness, one replicate
Conditions | first compound 0.002 µg/mL | first compound 0.004 µg/mL | first compound 0.008 µg/mL | first compound 0.0156 µg/mL | first compound 0.0312 µg/mL | first compound 0.0625 µg/mL
[2], partner 1 µg/mL | 0.798 | 0.786 | 0.685 | – | – | –
[2], partner 2 µg/mL | 0.783 | 0.762 | 0.692 | – | – | –
[2], partner 4 µg/mL | 0.628 | 0.612 | 0.541 | – | – | –
[3], partner 3.12 µg/mL | – | – | – | 0.807 | 0.594 | 0.363
[3], partner 6.24 µg/mL | – | – | – | 0.27 | 0.219 | 0.114

Reference: the supplement of paper PMC10627819
